Experimental findings from ChEMBL document CHEMBL1201862, “PubChem BioAssay data set” (2004) are described below.

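Interpolation was linear, between the two tested concentrations surrounding the appropriate level; five concentrations were tested over 48 hours in 96-well plates. GI50: concentration for 50% inhibition of growth.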 Active and inactive are the calls of the source. No stated cut-off is given here; in the data, active = GI50 up to about 1.1 µM and inactive = higher. Some results are limits rather than exact numbers.

Some test systems named below: DLD-1; DMS-114; HOP-18; KM-20L2; LXFL 529; M19-MEL; RXF 631; SNB-78; XF498.
What all share (assay): NCI tumour cell line growth inhibition, 48 h

On to `CN1OC(CO)CC12C1CC3CC(C1)CC2C3` (stereo not drawn), for which the GI50 with DLD-1, with DMS-114, in the assay on HOP-18, with KM-20L2, in the assay with LXFL 529 and with M19-MEL was > 100 µM (inactive) in each case.

On to `CCC/C(=N/NC(=O)C(N)=O)C(CC)C(=O)CCC(=O)N(Cc1ccccc1)Cc1ccccc1` (stereo not drawn), for which the GI50 in the assay with DMS-114, in the assay on HOP-18, in the assay on KM-20L2, in the assay with LXFL 529, with M19-MEL and in the assay with RXF 631 was > 100 µM (inactive) throughout. The GI50 with SNB-78 and in the assay on XF498 was > 100 µM (inactive) throughout.

For `Cc1cc2c(=O)cc(-c3ccncc3)oc2c(C(N)=O)c1C`, the GI50 in the assay with HOP-18, with KM-20L2, in the assay with LXFL 529, in the assay with M19-MEL, in the assay on SNB-78 and with XF498 was > 100 µM (inactive) in each case.

For the compound `COc1ccc2c3c([nH]c2c1[N+](=O)[O-])C(C)=NCC3`, the GI50 in the assay on DLD-1 is 99.1 µM (inactive); in the assay on DMS-114, > 100 µM (inactive); in the assay on KM-20L2, 69.3 µM (inactive); with LXFL 529, > 100 µM (inactive); in the assay on RXF 631, > 100 µM (inactive); with SNB-78, > 100 µM (inactive).

Consider `C/C(=N\NC(=S)NC(CCC(=O)O)C(=O)O)c1cnccn1` (stereo not drawn), for which the GI50 in the assay on DLD-1, in the assay with DMS-114, with HOP-18, in the assay on KM-20L2, in the assay on LXFL 529 and in the assay on M19-MEL was > 100 µM (inactive) in each case. Also, the GI50 with RXF 631, in the assay with SNB-78 and with XF498 was > 100 µM (inactive) in each case.

For `N#Cc1c(-c2ccccc2)cc(-c2ccc(N)cc2)[nH]c1=O`, the GI50 with DLD-1, in the assay with DMS-114, in the assay on HOP-18, in the assay on KM-20L2, with LXFL 529 and in the assay on M19-MEL was > 100 µM (inactive) in each case. For the same compound, the GI50 with RXF 631 and with SNB-78 was > 100 µM (inactive) each time.

In the case of `CSc1nc(NC2OC(COC(C)=O)C(OC(C)=O)C(OC(C)=O)C2OC(C)=O)c(/N=C\C=N/c2c(NC3OC(COC(C)=O)C(OC(C)=O)C(OC(C)=O)C3OC(C)=O)nc(SC)n(C)c2=O)c(=O)n1C` (stereo not drawn), the GI50 with DLD-1 was > 100 µM (inactive); in the assay on DMS-114 it was > 100 µM (inactive); in the assay on HOP-18, > 67.1 µM (inactive); in the assay on KM-20L2, > 100 µM (inactive); in the assay with LXFL 529, > 100 µM (inactive); in the assay on M19-MEL, > 100 µM (inactive). Also, the results for the GI50 in the assay on RXF 631, in the assay with SNB-78 and with XF498 were 51.8 µM (inactive), 31.7 µM (inactive) and 15.6 µM (inactive), respectively.

`C=CCN1C(=O)C/C(=C2/CCC(=O)N2CC=C)C1=O`: the GI50 in the assay with DLD-1, in the assay on DMS-114, with HOP-18, in the assay on KM-20L2, with LXFL 529 and with M19-MEL was > 100 µM (inactive) each time. Further, the GI50 in the assay on RXF 631 and in the assay on SNB-78 was > 100 µM (inactive) throughout.

`Cc1ccc(S(=O)(=O)N/N=C(\CCN2CCCC2)CC(c2ccccc2)c2c(O)c3ccccc3oc2=O)cc1` (stereo not drawn): the GI50 with DLD-1, in the assay on HOP-18, in the assay with KM-20L2, in the assay with LXFL 529, in the assay on M19-MEL and with RXF 631 was > 100 µM (inactive) each time. In addition, the GI50 in the assay on SNB-78 and with XF498 was > 100 µM (inactive) throughout.

Turning to `COC(=O)/C(=N\Nc1nnc(C)n1N)C(C#N)c1ccc(Cl)cc1` (stereo not drawn), the GI50 in the assay with DLD-1 was > 100 µM (inactive); in the assay with DMS-114 it was 58.1 µM (inactive); in the assay with HOP-18, > 100 µM (inactive); in the assay on KM-20L2, > 100 µM (inactive); in the assay with LXFL 529, > 100 µM (inactive); with M19-MEL it was > 100 µM (inactive). In addition, the GI50 with SNB-78 and with XF498 was > 100 µM (inactive) in each case.

Take `O=C(O)CCc1nn2c(nc1=O)sc1ccc3ccccc3c12`: the GI50 in the assay on DLD-1, in the assay with DMS-114, in the assay with HOP-18, in the assay with KM-20L2, in the assay with LXFL 529 and with M19-MEL was > 100 µM (inactive) in each case. Also, the GI50 with RXF 631, in the assay with SNB-78 and with XF498 was > 100 µM (inactive) in each case.

As for `O=C(CCC(=O)Nc1ccc(Cl)cc1)CC(=O)c1ccc(F)cc1`, the GI50 in the assay on DLD-1, with KM-20L2, in the assay on LXFL 529, in the assay with SNB-78 and in the assay on XF498 was > 100 µM (inactive) in each case.

In the case of `O=C(Cc1ccccc1[N+](=O)[O-])C(CO)c1ccccc1[N+](=O)[O-]` (stereo not drawn), the GI50 is > 100 µM (inactive) with DLD-1; 67.1 µM (inactive) in the assay with DMS-114; 4.17 µM (inactive) with HOP-18; > 100 µM (inactive) with KM-20L2; 57.1 µM (inactive) in the assay with LXFL 529; 95.9 µM (inactive) in the assay on M19-MEL. The results for the GI50 with SNB-78 and in the assay with XF498 were > 100 µM (inactive) and 20.8 µM (inactive), respectively.

As to `O=C1C(=O)N(c2cccc(C(F)(F)F)c2)C(=O)C(=O)C1c1nc2ccccc2s1`, the GI50 was 74.3 µM (inactive) with DLD-1; 45.8 µM (inactive) in the assay with DMS-114; 63.7 µM (inactive) in the assay with HOP-18; > 100 µM (inactive) in the assay with KM-20L2; 52 µM (inactive) with LXFL 529; 45.1 µM (inactive) with M19-MEL. Also, the GI50 in the assay on RXF 631 was 88.1 µM (inactive); in the assay on SNB-78 it was > 100 µM (inactive); in the assay with XF498, > 100 µM (inactive).

With `C=CCN(N=O)C(=O)N(CCCCC(NC(C)=O)C(=O)NCc1ccccc1)Cc1ccccc1` (stereo not drawn), the GI50 with DMS-114 is 27.7 µM (inactive); with HOP-18, 23 µM (inactive); with KM-20L2, 18.9 µM (inactive); in the assay on LXFL 529, 31.1 µM (inactive); in the assay on M19-MEL, 35.2 µM (inactive); in the assay on RXF 631 it was 32.5 µM (inactive). The GI50 in the assay with XF498 was 36.1 µM (inactive).

On to `N#Cc1ccc(C(C2C(=O)NC(=O)NC2=O)C2C(=O)NC(=O)NC2=O)cc1`, for which the GI50 in the assay with KM-20L2, in the assay with LXFL 529 and with M19-MEL was > 100 µM (inactive) in each case.

For `O=C1C2=C(SCCS2)C(=O)c2ccccc21`, the GI50 with DLD-1 is 1.96 µM (inactive); in the assay with DMS-114, 0.871 µM (active); in the assay on KM-20L2, 1.94 µM (inactive); in the assay on LXFL 529 it was 1.64 µM (inactive); in the assay with M19-MEL it was 0.236 µM (active); in the assay on RXF 631, 1.82 µM (inactive). In addition, the GI50 with XF498 was 1.64 µM (inactive).

On to `CC(C)(C)C1=Cc2cc3cc(C(C)(C)C)[nH]c(=O)c3cc2S(=O)(=O)N1`, for which the GI50 in the assay with DLD-1 is 31.7 µM (inactive); in the assay on DMS-114, 21.4 µM (inactive); in the assay on LXFL 529 it was 25.2 µM (inactive); in the assay on M19-MEL, 19.7 µM (inactive); in the assay on SNB-78, 42.1 µM (inactive).

As to `COc1ccc(C(C#N)Cc2cc(OC)c(OC)c(OC)c2)cc1` (stereo not drawn), the GI50 is 45.7 µM (inactive) in the assay on DLD-1; 17.4 µM (inactive) with DMS-114; > 100 µM (inactive) in the assay with HOP-18; 41.8 µM (inactive) in the assay on LXFL 529; 29.9 µM (inactive) in the assay on M19-MEL; 35.6 µM (inactive) in the assay on RXF 631. The GI50 with SNB-78 was 39.8 µM (inactive).

On to `CCN1CCN(c2ccc(Nc3ccnc4ccc5nn(C)nc5c34)cc2)CC1`, for which the GI50 in the assay with DLD-1 is 11.6 µM (inactive); with DMS-114, 10.1 µM (inactive); in the assay with KM-20L2, 8.36 µM (inactive); with LXFL 529, 10.7 µM (inactive); in the assay on M19-MEL it was 16.1 µM (inactive); with RXF 631, 10 µM (inactive). The results for the GI50 in the assay with SNB-78 and in the assay on XF498 were 14.2 µM (inactive) and 13.9 µM (inactive), respectively.

Turning to `O=C1c2ccccc2OP(=O)(OCC(F)(F)F)OC1(C(F)(F)F)C(F)(F)F` (stereo not drawn), the GI50 in the assay on DMS-114, in the assay with KM-20L2, with LXFL 529, in the assay on M19-MEL, in the assay on SNB-78 and in the assay on XF498 was > 100 µM (inactive) each time.

As for `O=C1NC(=O)C2C(=O)NC(=O)C1C2(c1ccccc1)c1cc[nH]c1` (stereo not drawn), the GI50 with DLD-1, in the assay with DMS-114, with LXFL 529, in the assay with M19-MEL, in the assay on SNB-78 and in the assay with XF498 was > 100 µM (inactive) in each case.

Consider `COc1ccc(/C=N\N2C(=O)Cc3ccccc32)cc1`, for which the GI50 in the assay with DLD-1 was > 100 µM (inactive); with HOP-18, > 100 µM (inactive); with KM-20L2, > 100 µM (inactive); in the assay on M19-MEL it was > 100 µM (inactive); in the assay on SNB-78, 91.2 µM (inactive); with XF498 it was 27.4 µM (inactive).

On to `O=C(N/N=C/c1cc(Br)ccc1O)N/N=C/c1cc(Br)ccc1O`, for which the GI50 was 2.9 µM (inactive) in the assay with DLD-1; 1.18 µM (inactive) in the assay with DMS-114; 4.85 µM (inactive) in the assay with KM-20L2; > 100 µM (inactive) in the assay on M19-MEL; 14.2 µM (inactive) in the assay on RXF 631; 2.19 µM (inactive) in the assay with XF498.

Consider `CC1CC(c2ccc(Cl)cc2)=Nc2ccccc2S1` (stereo not drawn), for which the GI50 with DLD-1, in the assay on DMS-114, with KM-20L2, in the assay with LXFL 529, with M19-MEL and in the assay on RXF 631 was > 100 µM (inactive) throughout. In addition, the GI50 in the assay with SNB-78 is > 100 µM (inactive).

`N#CC(C(=O)/C(=N\Nc1nc(S)nn1N)C(C#N)c1ccc(Cl)cc1)c1ccc(Cl)cc1` (stereo not drawn): the GI50 with DLD-1, in the assay with DMS-114, in the assay on HOP-18, in the assay with KM-20L2, with LXFL 529 and in the assay with M19-MEL was > 100 µM (inactive) each time. Also, the GI50 with SNB-78 and with XF498 was > 100 µM (inactive) each time.
